Source: ChEMBL document CHEMBL1154479, “Newer GABA derivatives for the treatment of epilepsy including febrile seizures: a bioisosteric approach” (Eur J Med Chem, 2008)
Calls of active or inactive are those of the source. The rule behind the calls is not given here.

How the values were obtained:
Mus musculus [1] = test: Anticonvulsant activity in Swiss albino mouse assessed as inhibition of subcutaneous strychnine-induced seizures at 300 mg/kg, ip administered 30 mins before STY challenge measured after 0.5 hrs post STY challenge; assay type: functional, organism-based; design: dose 300 mg/kg
Mus musculus [2] = test: Anticonvulsant activity in Swiss albino mouse assessed as inhibition of subcutaneous strychnine-induced seizures at 300 mg/kg, ip administered 30 mins before STY challenge measured after 4 hrs post STY challenge; assay type: functional, organism-based; design: dose 300 mg/kg
Mus musculus [3] = test: Anticonvulsant activity in Swiss albino mouse assessed as inhibition of subcutaneous picrotoxin-induced seizures at 300 mg/kg, ip administered 30 mins before PIC challenge measured after 4 hrs post PIC challenge; assay type: functional, organism-based; design: dose 300 mg/kg
Rattus norvegicus = test: Anticonvulsant activity in Wistar rat assessed as protection against hyperthermia-induced seizures at 100 mg/kg, ip relative to control; assay type: functional; conditions: route intraperitoneal
Mus musculus [4] = test: Neurotoxicity in ip dosed Swiss albino mouse assessed as inability of animal to maintain equilibrium on the rod for at least 1 min after 4 hrs by rotarod test; assay type: toxicity, organism-based; conditions: in vivo
Mus musculus [5] = test: Neurotoxicity in Swiss albino mouse assessed as inability of animal to maintain equilibrium on the rod for at least 1 min at 300 mg/kg, ip after 0.5 hrs by rotarod test; assay type: toxicity, organism-based; design: dose 300 mg/kg, route intraperitoneal; conditions: in vivo
Mus musculus [6] = test: Anticonvulsant activity in Swiss albino mouse assessed as inhibition of maximal electroshock-induced seizures at 300 mg/kg, ip administered 30 mins before electroshock measured after 0.5 hrs post electroshock; assay type: functional, organism-based; design: dose 300 mg/kg
Mus musculus [7] = test: Anticonvulsant activity in Swiss albino mouse assessed as inhibition of subcutaneous pentylenetetrazole-induced seizures at 300 mg/kg, ip administered 30 mins before PTZ challenge measured after 0.5 hrs post PTZ challenge; assay type: functional, organism-based; design: dose 300 mg/kg
Mus musculus [8] = test: Anticonvulsant activity in Swiss albino mouse assessed as inhibition of subcutaneous pentylenetetrazole-induced seizures at 300 mg/kg, ip administered 30 mins before PTZ challenge measured after 4 hrs post PTZ challenge; assay type: functional, organism-based; design: dose 300 mg/kg
Mus musculus [9] = test: Anticonvulsant activity in ip dosed Swiss albino mouse assessed as inhibition of subcutaneous picrotoxin-induced seizures administered 30 mins before PIC challenge measured after 0.5 hrs post PIC challenge; assay type: functional
Mus musculus [10] = test: Anticonvulsant activity in ip dosed Swiss albino mouse assessed as inhibition of subcutaneous picrotoxin-induced seizures administered 30 mins before PIC challenge measured after 4 hrs post PIC challenge; assay type: functional
Mus musculus [11] = test: Neurotoxicity in Swiss albino mouse assessed as inability of animal to maintain equilibrium on the rod for at least 1 min at 300 mg/kg, ip after 4 hrs by rotarod test; assay type: toxicity, organism-based; design: dose 300 mg/kg, route intraperitoneal; conditions: in vivo
Mus musculus [12] = test: Anticonvulsant activity in ip dosed Swiss albino mouse assessed as inhibition of subcutaneous pentylenetetrazole-induced seizures administered 30 mins before PTZ challenge measured after 0.5 hrs post PTZ challenge; assay type: functional
Mus musculus [13] = test: Anticonvulsant activity in Swiss albino mouse assessed as inhibition of subcutaneous picrotoxin-induced seizures at 300 mg/kg, ip administered 30 mins before PIC challenge measured after 0.5 hrs post PIC challenge; assay type: functional, organism-based; design: dose 300 mg/kg
Mus musculus [14] = test: Neurotoxicity in ip dosed Swiss albino mouse assessed as inability of animal to maintain equilibrium on the rod for at least 1 min after 0.5 hrs by rotarod test; assay type: toxicity, organism-based; conditions: in vivo
Mus musculus [15] = test: Anticonvulsant activity in ip dosed Swiss albino mouse assessed as inhibition of maximal electroshock-induced seizures administered 30 mins before electroshock measured after 0.5 hrs post electroshock; assay type: functional
Mus musculus [16] = test: Anticonvulsant activity in ip dosed Swiss albino mouse assessed as inhibition of subcutaneous strychnine-induced seizures administered 30 mins before STY challenge measured after 0.5 hrs post STY challenge; assay type: functional
Mus musculus [17] = test: Anticonvulsant activity in ip dosed Swiss albino mouse assessed as inhibition of subcutaneous strychnine-induced seizures administered 30 mins before STY challenge measured after 4 hrs post STY challenge; assay type: functional
Mus musculus [18] = test: Anticonvulsant activity in ip dosed Swiss albino mouse assessed as inhibition of subcutaneous pentylenetetrazole-induced seizures administered 30 mins before PTZ challenge measured after 4 hrs post PTZ challenge; assay type: functional

O=C(O)CCCNC(=S)NN=C(Cc1ccccc1)Cc1ccccc1
Activity (Mus musculus [1]): inactive
Activity (Mus musculus [2]): inactive
Activity (Mus musculus [3]): inactive
Activity (Rattus norvegicus): 73%
Activity (Mus musculus [4]): 300 mg/kg
Activity (Mus musculus [5]): Non-toxic
Activity (Mus musculus [6]): inactive
Activity (Mus musculus [7]): inactive
Activity (Mus musculus [8]): inactive

C/C(=N\NC(=S)NCCCC(=O)O)c1ccccc1
Activity (Mus musculus [1]): inactive
Activity (Mus musculus [2]): inactive
Activity (Mus musculus [9]): 100 mg/kg
Activity (Mus musculus [10]): 100 mg/kg
Activity (Rattus norvegicus): 90%
Activity (Mus musculus [5]): Non-toxic
Activity (Mus musculus [11]): Non-toxic
Activity (Mus musculus [12]): 300 mg/kg
Activity (Mus musculus [6]): inactive
Activity (Mus musculus [8]): inactive

O=C1NC(=O)C(c2ccccc2)(c2ccccc2)N1 [PHENYTOIN]
Activity (Mus musculus [1]): inactive
Activity (Mus musculus [2]): inactive
Activity (Mus musculus [13]): inactive
Activity (Mus musculus [3]): inactive
Activity (Mus musculus [14]): 100 mg/kg
Activity (Mus musculus [4]): 100 mg/kg
Activity (Mus musculus [15]): 30 mg/kg
Activity (Mus musculus [7]): inactive
Activity (Mus musculus [8]): inactive

Nc1nnc(-c2cccc(Cl)c2Cl)c(N)n1 [LAMOTRIGINE]
Activity (Mus musculus [1]): inactive
Activity (Mus musculus [2]): inactive
Activity (Mus musculus [13]): inactive
Activity (Mus musculus [3]): inactive
Activity (Rattus norvegicus): 51%
Activity (Mus musculus [14]): 100 mg/kg
Activity (Mus musculus [4]): 100 mg/kg
Activity (Mus musculus [15]): 30 mg/kg
Activity (Mus musculus [12]): 30 mg/kg
Activity (Mus musculus [8]): inactive

C/C(=N\NC(=S)NCCCC(=O)O)c1cccc(N)c1
Activity (Mus musculus [1]): inactive
Activity (Mus musculus [2]): inactive
Activity (Mus musculus [9]): 300 mg/kg
Activity (Mus musculus [10]): 300 mg/kg
Activity (Rattus norvegicus): 27%
Activity (Mus musculus [5]): Non-toxic
Activity (Mus musculus [11]): Non-toxic
Activity (Mus musculus [6]): inactive
Activity (Mus musculus [7]): inactive
Activity (Mus musculus [8]): inactive

CCC1(C)CC(=O)NC1=O (configuration not stated) [ETHOSUXIMIDE]
Activity (Mus musculus [1]): inactive
Activity (Mus musculus [2]): inactive
Activity (Mus musculus [13]): inactive
Activity (Mus musculus [3]): inactive
Activity (Mus musculus [5]): Non-toxic
Activity (Mus musculus [11]): Non-toxic
Activity (Mus musculus [12]): 300 mg/kg
Activity (Mus musculus [6]): inactive
Activity (Mus musculus [8]): inactive

O=C(O)CCCNC(=S)N/N=C/c1ccc([N+](=O)[O-])cc1
Activity (Mus musculus [1]): inactive
Activity (Mus musculus [2]): inactive
Activity (Mus musculus [9]): 300 mg/kg
Activity (Mus musculus [10]): 300 mg/kg
Activity (Rattus norvegicus): 85%
Activity (Mus musculus [5]): Non-toxic
Activity (Mus musculus [11]): Non-toxic
Activity (Mus musculus [6]): inactive
Activity (Mus musculus [7]): inactive
Activity (Mus musculus [8]): inactive

O=C(O)CCCNC(=S)N/N=C/c1ccc(Cl)cc1
Activity (Mus musculus [16]): 300 mg/kg
Activity (Mus musculus [17]): 300 mg/kg
Activity (Rattus norvegicus): 49%
Activity (Mus musculus [14]): 100 mg/kg
Activity (Mus musculus [11]): Non-toxic
Activity (Mus musculus [12]): 100 mg/kg
Activity (Mus musculus [6]): inactive
Activity (Mus musculus [8]): inactive

NNC(=S)NCCCC(=O)O
Activity (Mus musculus [1]): inactive
Activity (Mus musculus [2]): inactive
Activity (Mus musculus [13]): inactive
Activity (Mus musculus [3]): inactive
Activity (Rattus norvegicus): 27%
Activity (Mus musculus [14]): 300 mg/kg
Activity (Mus musculus [4]): 300 mg/kg
Activity (Mus musculus [15]): 300 mg/kg
Activity (Mus musculus [7]): inactive
Activity (Mus musculus [8]): inactive

O=C(O)CCCNC(=S)NN=C1CCCC1
Activity (Mus musculus [1]): inactive
Activity (Mus musculus [2]): inactive
Activity (Mus musculus [13]): inactive
Activity (Mus musculus [3]): inactive
Activity (Rattus norvegicus): 71%
Activity (Mus musculus [5]): Non-toxic
Activity (Mus musculus [11]): Non-toxic
Activity (Mus musculus [12]): 100 mg/kg
Activity (Mus musculus [6]): inactive
Activity (Mus musculus [8]): inactive

C/C(=N\NC(=S)NCCCC(=O)O)c1ccc([N+](=O)[O-])cc1
Activity (Mus musculus [1]): inactive
Activity (Mus musculus [2]): inactive
Activity (Mus musculus [13]): inactive
Activity (Mus musculus [3]): inactive
Activity (Rattus norvegicus): 46%
Activity (Mus musculus [14]): 100 mg/kg
Activity (Mus musculus [4]): 100 mg/kg
Activity (Mus musculus [6]): inactive
Activity (Mus musculus [7]): inactive
Activity (Mus musculus [8]): inactive

O=C(O)CCCNC(=S)NN=C1CCCCC1
Activity (Mus musculus [1]): inactive
Activity (Mus musculus [2]): inactive
Activity (Mus musculus [9]): 300 mg/kg
Activity (Mus musculus [10]): 300 mg/kg
Activity (Rattus norvegicus): 78%
Activity (Mus musculus [5]): Non-toxic
Activity (Mus musculus [11]): Non-toxic
Activity (Mus musculus [6]): inactive
Activity (Mus musculus [7]): inactive
Activity (Mus musculus [8]): inactive

CN(C)c1ccc(/C=N/NC(=S)NCCCC(=O)O)cc1
Activity (Mus musculus [16]): 300 mg/kg
Activity (Mus musculus [17]): 300 mg/kg
Activity (Rattus norvegicus): 88%
Activity (Mus musculus [5]): Non-toxic
Activity (Mus musculus [11]): Non-toxic
Activity (Mus musculus [6]): inactive
Activity (Mus musculus [7]): inactive
Activity (Mus musculus [8]): inactive

O=C(O)CCCNC(=S)N/N=C1\C(=O)Nc2ccccc21
Activity (Mus musculus [1]): inactive
Activity (Mus musculus [2]): inactive
Activity (Mus musculus [9]): 300 mg/kg
Activity (Mus musculus [10]): 300 mg/kg
Activity (Rattus norvegicus): 92%
Activity (Mus musculus [5]): Non-toxic
Activity (Mus musculus [11]): Non-toxic
Activity (Mus musculus [12]): 30 mg/kg
Activity (Mus musculus [6]): inactive
Activity (Mus musculus [8]): inactive

C/C(=N\NC(=S)NCCCC(=O)O)c1ccc(C)cc1
Activity (Mus musculus [1]): inactive
Activity (Mus musculus [2]): inactive
Activity (Mus musculus [13]): inactive
Activity (Mus musculus [3]): inactive
Activity (Rattus norvegicus): 80%
Activity (Mus musculus [5]): Non-toxic
Activity (Mus musculus [11]): Non-toxic
Activity (Mus musculus [6]): inactive
Activity (Mus musculus [7]): inactive
Activity (Mus musculus [8]): inactive

O=C(O)CCCNC(=S)N/N=C(\c1ccccc1)c1ccc(Br)cc1
Activity (Mus musculus [16]): 100 mg/kg
Activity (Mus musculus [2]): inactive
Activity (Rattus norvegicus): 19%
Activity (Mus musculus [14]): 300 mg/kg
Activity (Mus musculus [11]): Non-toxic
Activity (Mus musculus [6]): inactive
Activity (Mus musculus [7]): inactive
Activity (Mus musculus [8]): inactive

O=C(O)CCCNC(=S)N/N=C/c1ccccc1O
Activity (Mus musculus [16]): 100 mg/kg
Activity (Mus musculus [2]): inactive
Activity (Rattus norvegicus): 92%
Activity (Mus musculus [5]): Non-toxic
Activity (Mus musculus [11]): Non-toxic
Activity (Mus musculus [12]): 100 mg/kg
Activity (Mus musculus [6]): inactive
Activity (Mus musculus [8]): inactive

O=C(O)CCCNC(=S)NN=C(c1ccccc1)c1ccccc1
Activity (Mus musculus [1]): inactive
Activity (Mus musculus [2]): inactive
Activity (Rattus norvegicus): 83%
Activity (Mus musculus [5]): Non-toxic
Activity (Mus musculus [11]): Non-toxic
Activity (Mus musculus [15]): 300 mg/kg
Activity (Mus musculus [7]): inactive
Activity (Mus musculus [8]): inactive

O=C(O)CCCNC(=S)N/N=C/c1cccc([N+](=O)[O-])c1
Activity (Mus musculus [16]): 300 mg/kg
Activity (Mus musculus [2]): inactive
Activity (Mus musculus [9]): 100 mg/kg
Activity (Mus musculus [10]): 100 mg/kg
Activity (Rattus norvegicus): 51%
Activity (Mus musculus [5]): Non-toxic
Activity (Mus musculus [11]): Non-toxic
Activity (Mus musculus [18]): 300 mg/kg
Activity (Mus musculus [6]): inactive
Activity (Mus musculus [7]): inactive
